{
  "source": "patent US10154957B2",
  "about": "“Microneedle device having a peptide therapeutic agent and an amino acid and methods of making and using the same” (3M INNOVATIVE PROPERTIES COMPANY, priority 2011, dated 2018)",
  "experiment": "Percent purity of PTHrP analogue (20 mg/mL formulations) in coating on flood-coated arrays stored at 40° C./96% RH (HPLC)",
  "assay_type": "physicochemical",
  "conditions": "peptide 20 mg/mL in PBS",
  "description": "The protein or polypeptide content in the formulation coated on the microneedle arrays was determined using an Agilent 1100 HPLC system (Agilent Technologies, Wilmington, Del.) equipped with a binary pump, well-plated thermostated autosampler, thermostated column compartment, and a diode array UV detector. A Zorbax 300SB-C8 column (Agilent Technologies, Wilmington, Del.) having a 5 μm particle size and 2.1×150 mm inner diameter was used for the separations. The column was maintained at 50° C. The mobile phase consisted of two eluents. Eluent A was 0.1% TFA (trifluoroacetic acid) in water and eluent B was 0.1% TFA in acetonitrile (Spectrum Chemical, New Brunswick, N.J.). A linear gradient from 80/20 to 50/50 (A/B) was applied over 30 minutes. The flow rate was 0.4 mL/minute and the UV detection wavelength was set at 214 nm. The total run time was 34 minutes and the sample injection volume was 15 μL.\nA sample formulation containing 20 mg/mL of [Glu^22,25,Leu^23,28,31,Aib^29,Lys^26,30]hPTHrP(1-34)NH2 and 20 mg/mL of L-histidine monohydrochloride (His-HCl) in PBS was prepared. A control formulation was also prepared containing 20 mg/mL of [Glu^22,25,Leu^23,28,31,Aib^29,Lys^26,30]hPTHrP(1-34)NH2 in PBS. […] Microneedle arrays were coated with either the sample or the control formulation. The coating was applied by dropwise addition of 50 μL of the formulation to the portion of the array defined by the octagon shaped pattern of microneedles. The flood coated arrays (both sample and control formulation coated) were dried in an oven at 35° C. for 2 hours followed by 30° C. for 15 hours.\nAfter drying, the coated arrays were placed in a storage chamber that was maintained at 40° C. and 96% relative humidity (RH). The [Glu^22,25,Leu^23,28,31,Aib^29,Lys^26,30]hPTHrP(1-34)NH2 content of the coated arrays was determined following storage in the chamber for 1, 3, and 7 days. The initial [Glu^22,25,Leu^23,28,31,Aib^29,Lys^26,30]hPTHrP(1-34)NH2 content was also determined using freshly coated arrays (both sample and control formulation coated). The arrays used to determine initial content were stored in a refrigerator at about 4° C. and analyzed within one day of being prepared. At the designated time point, an array was taken from the chamber and washed with 0.1 N acetic acid (20 mL) to remove the formulation from the array. The resulting wash solution was analyzed for [Glu^22,25,Leu^23,28,31,Aib^29,Lys^26,30]hPTHrP(1-34)NH2 content using the HPLC method described above. The results were quantified against an external standard of [Glu^22,25,Leu^23,28,31,Aib^29,Lys^26,30]hPTHrP(1-34)NH2. At each time point, the percent purity of [Glu^22,25,Leu^23,28,31,Aib^29,Lys^26,30]hPTHrP(1-34)NH2 in the coating was determined by measuring the peak area for [Glu^22,25,Leu^23,28,31,Aib^29,Lys^26,30]hPTHrP(1-34)NH2 in the selected coating and dividing it by the total peak area measured for all [Glu^22,25,Leu^23,28,31,Aib^29,Lys^26,30]hPTHrP(1-34)NH2 related peaks.\nThe same procedure as described in Example 9 was used with the exception that the sample formulation contained 20 mg/mL of L-arginine hydrochloride, instead of L-histidine monohydrochloride.",
  "data": [
    {"substance": "[Glu^22,25,Leu^23,28,31,Aib^29,Lys^26,30]hPTHrP(1-34)NH2", "values": [
      {"measurement": "Percent Purity of [Glu^22,25, Leu^23,28,31, Aib^29, Lys^26,30]hPTHrP(1-34)NH2", "setting": "Amino Acid L-Arginine (Arg-HCl 20 mg/mL), Day 1 at 40° C./96% RH", "result": 88.4, "unit": "%"},
      {"measurement": "Percent Purity of [Glu^22,25, Leu^23,28,31, Aib^29, Lys^26,30]hPTHrP(1-34)NH2", "setting": "Amino Acid L-Arginine (Arg-HCl 20 mg/mL), Day 3 at 40° C./96% RH", "result": 76.1, "unit": "%"},
      {"measurement": "Percent Purity of [Glu^22,25, Leu^23,28,31, Aib^29, Lys^26,30]hPTHrP(1-34)NH2", "setting": "Amino Acid L-Arginine (Arg-HCl 20 mg/mL), Day 7 at 40° C./96% RH", "result": 46.4, "unit": "%"},
      {"measurement": "Percent Purity of [Glu^22,25, Leu^23,28,31, Aib^29, Lys^26,30]hPTHrP(1-34)NH2", "setting": "Amino Acid L-Arginine (Arg-HCl 20 mg/mL), Initial", "result": 99.0, "unit": "%"},
      {"measurement": "Percent Purity of [Glu^22,25, Leu^23,28,31, Aib^29, Lys^26,30]hPTHrP(1-34)NH2", "setting": "Amino Acid L-Histidine (His-HCl 20 mg/mL), Day 1 at 40° C./96% RH", "result": 99.3, "unit": "%"},
      {"measurement": "Percent Purity of [Glu^22,25, Leu^23,28,31, Aib^29, Lys^26,30]hPTHrP(1-34)NH2", "setting": "Amino Acid L-Histidine (His-HCl 20 mg/mL), Day 3 at 40° C./96% RH", "result": 98.9, "unit": "%"},
      {"measurement": "Percent Purity of [Glu^22,25, Leu^23,28,31, Aib^29, Lys^26,30]hPTHrP(1-34)NH2", "setting": "Amino Acid L-Histidine (His-HCl 20 mg/mL), Day 7 at 40° C./96% RH", "result": 97.9, "unit": "%"},
      {"measurement": "Percent Purity of [Glu^22,25, Leu^23,28,31, Aib^29, Lys^26,30]hPTHrP(1-34)NH2", "setting": "Amino Acid L-Histidine (His-HCl 20 mg/mL), Initial", "result": 99.4, "unit": "%"},
      {"measurement": "Percent Purity of [Glu^22,25, Leu^23,28,31, Aib^29, Lys^26,30]hPTHrP(1-34)NH2", "setting": "Amino Acid None (control), Day 1 at 40° C./96% RH", "result": 85.6, "unit": "%"},
      {"measurement": "Percent Purity of [Glu^22,25, Leu^23,28,31, Aib^29, Lys^26,30]hPTHrP(1-34)NH2", "setting": "Amino Acid None (control), Day 3 at 40° C./96% RH", "result": 53.1, "unit": "%"},
      {"measurement": "Percent Purity of [Glu^22,25, Leu^23,28,31, Aib^29, Lys^26,30]hPTHrP(1-34)NH2", "setting": "Amino Acid None (control), Day 7 at 40° C./96% RH", "result": 21.1, "unit": "%"},
      {"measurement": "Percent Purity of [Glu^22,25, Leu^23,28,31, Aib^29, Lys^26,30]hPTHrP(1-34)NH2", "setting": "Amino Acid None (control), Initial", "result": 98.9, "unit": "%"}
    ]}
  ]
}
